Data reported in patent US10597388B2, “Pyridazinone herbicides” (FMC CORPORATION, priority 2014, dated 2020).

Legend:
Format in all cases: in vivo
[1] = test system: galium (catchweed bedstraw, Galium aparine); experiment: Test A greenhouse herbicide test, postemergence
Outline: (§1)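 Visual injury score, 0 (no effect) to 100 (complete control), versus untreated controls roughly 10 d after postemergence spray; plants at one- to two-leaf stage, 2 to 10 cm tall, in loam soil and sand, kept in greenhouse.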

[2] = test system: blackgrass (Alopecurus myosuroides); experiment: Test A greenhouse herbicide test, postemergence
Outline: as §1

[3] = test system: ryegrass, Italian (Italian ryegrass, Lolium multiflorum); experiment: Test C greenhouse herbicide test, pre- and postemergence
Outline: (§2)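 Seeds sown in loam–sand blend treated preemergence; plants in peat-based medium sprayed postemergence at 2–18 cm (1- to 4-leaf stage); chemicals in non-phytotoxic solvent with surfactant. Greenhouse 13–15 d, then visual rating versus controls on 0–100 scale (0 no effect, 100 complete control).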

[4] = test system: johnsongrass (Sorghum halepense); experiment: as above
Outline: as §2

[5] = test system: wheat (winter wheat, Triticum aestivum); experiment: as above
Outline: as §2

[6] = test system: foxtail, giant (giant foxtail, Setaria faberii); experiment: as above
Outline: as §2

[7] = test system: galium (catchweed bedstraw, Galium aparine); experiment: as above
Outline: as §2

[8] = test system: barnyardgrass (Echinochloa crus-galli); experiment: as above
Outline: as §2

[9] = test system: lambsquarters (Chenopodium album); experiment: as above
Outline: as §2

[10] = test system: oilseed rape (Brassica napus); experiment: as above
Outline: as §2

[11] = test system: crabgrass, large (large crabgrass, Digitaria sanguinalis); experiment: as above
Outline: as §2

[12] = test system: morningglory (Ipomoea coccinea); experiment: as above
Outline: as §2

[13] = test system: ragweed (common ragweed, Ambrosia elatior); experiment: as above
Outline: as §2

[14] = 125 g ai/ha, visual rating after approx. 10 d, 0 to 100 scale (0 no effect, 100 complete control)
[15] = 500 g ai/ha, 0 to 100 scale, 0 is no effect, 100 is complete control
[16] = Postemergence, 31 g ai/ha, 0 to 100 scale (0 no effect, 100 complete control)
[17] = Postemergence, 125 g ai/ha, scale 0 to 100, 0 is no effect, 100 is complete control
[18] = Postemergence, 250 g ai/ha, scale 0 to 100, 0 no effect, 100 complete control, 13 to 15 d
[19] = Preemergence, 31 g ai/ha, scale 0 to 100, 0 is no effect, 100 is complete control
[20] = Preemergence, 62 g ai/ha, scale 0 to 100, 0 is no effect, 100 is complete control
[21] = Preemergence, 125 g ai/ha, scale 0 to 100, 0 is no effect, 100 is complete control
[22] = Preemergence, 250 g ai/ha, scale 0 to 100, 0 no effect, 100 complete control
[23] = postemergence, 62 g ai/ha, scale 0 to 100, 0 no effect, 100 complete control

Cc1cc2ccccc2c(-c2c(O)c(C)nn(C)c2=O)c1C [Compound 34]
Plant response rating, Galium [1, 14]: 90
Galium plant response rating [1, 15]: 100
Plant response rating, Blackgrass [2, 14]: 80
Blackgrass plant response rating [2, 15]: 90
Ryegrass, Italian plant response rating [3, 16]: 80
Plant response rating, Ryegrass, Italian [3, 17]: 90
Plant response rating, Ryegrass, Italian [3, 18]: 90
Plant response rating, Ryegrass, Italian [3, 19]: 45
Plant response rating, Ryegrass, Italian [3, 20]: 85
Plant response rating, Ryegrass, Italian [3, 21]: 85
Ryegrass, Italian plant response rating [3, 22]: 95
Ryegrass, Italian plant response rating [3, 23]: 80
Johnsongrass plant response rating [4, 16]: 5
Plant response rating, Johnsongrass [4, 17]: 5
Plant response rating, Johnsongrass [4, 18]: 5
Plant response rating, Johnsongrass [4, 19]: 0
Plant response rating, Johnsongrass [4, 20]: 0
Plant response rating, Johnsongrass [4, 21]: 0
Johnsongrass plant response rating [4, 22]: 20
Johnsongrass plant response rating [4, 23]: 5
Wheat plant response rating [5, 16]: 5
Plant response rating, Wheat [5, 17]: 10
Plant response rating, Wheat [5, 18]: 0
Plant response rating, Wheat [5, 20]: 0
Plant response rating, Wheat [5, 21]: 5
Wheat plant response rating [5, 22]: 25
Wheat plant response rating [5, 23]: 5
Foxtail, Giant plant response rating [6, 16]: 10
Plant response rating, Foxtail, Giant [6, 17]: 25
Plant response rating, Foxtail, Giant [6, 18]: 35
Plant response rating, Foxtail, Giant [6, 19]: 0
Plant response rating, Foxtail, Giant [6, 20]: 65
Plant response rating, Foxtail, Giant [6, 21]: 75
Foxtail, Giant plant response rating [6, 22]: 70
Foxtail, Giant plant response rating [6, 23]: 20
Galium plant response rating [7, 16]: 90
Plant response rating, Galium [7, 17]: 95
Plant response rating, Galium [7, 18]: 95
Plant response rating, Galium [7, 19]: 95
Plant response rating, Galium [7, 20]: 95
Plant response rating, Galium [7, 21]: 90
Galium plant response rating [7, 22]: 100
Galium plant response rating [7, 23]: 95
Barnyardgrass plant response rating [8, 16]: 20
Plant response rating, Barnyardgrass [8, 17]: 35
Plant response rating, Barnyardgrass [8, 18]: 35
Plant response rating, Barnyardgrass [8, 19]: 60
Plant response rating, Barnyardgrass [8, 20]: 55
Plant response rating, Barnyardgrass [8, 21]: 65
Barnyardgrass plant response rating [8, 22]: 75
Barnyardgrass plant response rating [8, 23]: 25
Lambsquarters plant response rating [9, 16]: 90
Plant response rating, Lambsquarters [9, 17]: 95
Plant response rating, Lambsquarters [9, 18]: 100
Plant response rating, Lambsquarters [9, 19]: 80
Plant response rating, Lambsquarters [9, 20]: 90
Plant response rating, Lambsquarters [9, 21]: 80
Lambsquarters plant response rating [9, 22]: 75
Lambsquarters plant response rating [9, 23]: 90
Oilseed Rape plant response rating [10, 16]: 30
Plant response rating, Oilseed Rape [10, 17]: 50
Plant response rating, Oilseed Rape [10, 18]: 20
Plant response rating, Oilseed Rape [10, 19]: 10
Plant response rating, Oilseed Rape [10, 20]: 25
Plant response rating, Oilseed Rape [10, 21]: 90
Oilseed Rape plant response rating [10, 22]: 90
Oilseed Rape plant response rating [10, 23]: 30
Crabgrass, Large plant response rating [11, 16]: 5
Plant response rating, Crabgrass, Large [11, 17]: 20
Plant response rating, Crabgrass, Large [11, 18]: 25
Plant response rating, Crabgrass, Large [11, 19]: 0
Plant response rating, Crabgrass, Large [11, 20]: 10
Plant response rating, Crabgrass, Large [11, 21]: 25
Crabgrass, Large plant response rating [11, 22]: 30
Crabgrass, Large plant response rating [11, 23]: 10
Morningglory plant response rating [12, 16]: 85
Plant response rating, Morningglory [12, 17]: 95
Plant response rating, Morningglory [12, 18]: 98
Plant response rating, Morningglory [12, 19]: 70
Plant response rating, Morningglory [12, 20]: 80
Plant response rating, Morningglory [12, 21]: 85
Morningglory plant response rating [12, 22]: 95
Morningglory plant response rating [12, 23]: 98
Ragweed plant response rating [13, 16]: 85
Plant response rating, Ragweed [13, 17]: 95
Plant response rating, Ragweed [13, 18]: 95
Plant response rating, Ragweed [13, 19]: 80
Plant response rating, Ragweed [13, 20]: 80
Plant response rating, Ragweed [13, 21]: 90
Ragweed plant response rating [13, 22]: 95
Ragweed plant response rating [13, 23]: 98
